Experimental data reported in patent US8318947B2, “Comestible compositions comprising high potency savory flavorants, and processes for producing them” (Senomyx, Inc., priority 2006, dated 2012).

Legend:
[1] = tested on: trained tasters; experiment: Pizza sauce triangle difference taste test; format: in vivo, human
Experimental: For effective formulation in pizza sauce, a water soluble savory flavor concentrate formulation comprising 0.1% of Compound 1 was developed by dissolution in propylene glycol.
18221.7600 g of propylene glycol (supplied by Gold Coast, Inc.) was weighed out into a 2000 ml stainless steel cylinder, 18.2400 grams of Compound 1 was slowly added to 700.00 g of the propylene glycol using a Silverson Mill (model: L4RT) having a square hole high shear screen and set at 2000 rpm, until all of the dry 5807 (Compound 1) was added to the propylene glycol, the mill rpms was increased to 5,000-6,000 rpm's for 8-10 minutes. The remaining 17,521.76 g of propylene glycol was placed into a 10-gallon steam jacketed kettle equipped with a Lightnin Mixer utilizing a three blade impeller and heated to 50° C. (120° F.), then the milled solution was slowly added to the heated and agitated propylene glycol in the kettle. It took over 30 minutes of heating and mixing to completely solubilize Compound 1, then, the solution was allowed to cool to 80° F., then a Unispense Filler was used to fill sterilized 2 oz. glass containers with 62 grams of the liquid savory flavor, for storage. The water activity of the solution was 0.953@24.7° C., the refractive index was 1.4328, and the final concentration of this savory flavor was 0.10% of Compound 1.
Two pizza sauce samples, one comprising 0.4% of MSG and one containing no MSG, but comprising 1.1 ppm of Compound 1 were prepared using the ingredients listed in Tables 391 and 39-2 below, using the following procedure.
Salt, citric acid, sugar, the spices and herbs, including the MSG, were pre-blended as solids at 80-100 rpms in a 6 quart bowl and mixed using a KitchenAide blender for 5 minutes using a whip attachment. Water was placed in a clean kettle and stirred with a Lightnin mixer at 120-200 rpms to create a vortex. The savory flavor form of Compound 1, 0.10%, was slowly added to the water and mixed for five minutes. The vinegar and solid spice mixture was slowly added with the mixer still blending at 80-100 rpms until the dry seasonings were dissolved, approximately 5 minutes. The tomato paste was added and the slurry was mixed an additional 10. The resulting pizza sauce was transferred to a stainless steel six quart pot on a gas burner and was heated to pasteurizing temperature (175-190° F.) and held for a minimum of two minutes, cooled down to ambient (70+/−2° F.) temperature.
Ten trained tasters were trained to identify relative intensities of the following taste attributes: salty, savory/meaty, umami, brothiness, bitter, linger and off flavors. A triangle difference test determines if there is a sensory difference between two products. Three blinded, coded and randomized samples are presented to the panelist. Two samples are the same and one is different. To answer the test correctly, the panelist must taste all three samples and correctly pick out the sample they feel is different from the other two.
The samples were blind coded and presented in randomized order. The panelists each performed a total of two triangle tests, with 3 samples per test
a. Test 1: 2 samples with 1.1 ppm Compound 1; one sample with MSG.
b. Test 2: 2 samples with MSG; one sample with 1.1 ppm Compound 1.

[2] = tested on: human subjects, savory taste; experiment: Human taste test of low sodium tomato juice; format: in vivo; conditions: 3 μM cpd; 400 mg Na/8 oz tomato juice
Experimental: Human taste tests were conducted in order to evaluate the ability of the compounds of the invention to enhance the savory flavor of low sodium tomato juice (which naturally comprises some monosodium glutamate).
The final tomato juice samples for taste testing were prepared so as to comprise 90% (by volume) pre-made low sodium tomato juice stock (pH 4.2, 80˜100 mg Na/8 oz, 16 mM of naturally occurring MSG), 5% (by volume) of stock solutions formulated to produce selected final levels of sodium of final juice, and 5% (by volume) of a stock solution of the compound of the invention. Selected oxalamide compounds of the invention were dissolved in LSB (low sodium phosphate buffer), to provide a stock solution at 20 times the desired final concentration in the final tomato juice. The desired final sodium concentration of the final tomato juice was most experiments 73.6 mM (400 mg sodium in 8 oz. of juice), therefore a stock solution of NaCl was made at 1.48 M NaCl. The pH for the stock solutions was adjusted to 4.2 using a 1 M citric acid solution, and the stock solutions were sonicated to ensure the additive compounds were completely dissolved. […]
Scores were averaged across panelists and sessions, and evaluated using a 2-way ANOVA (factors: panelists and samples) and Duncan's multiple comparison test (alpha=0.05) to determine significant differences in intensity ratings.

[3] = Test 1: 2 samples with 1.1 ppm Compound 1, one sample with MSG, 10 panelists
[4] = Test 2: 2 samples with MSG, one sample with 1.1 ppm Compound 1, 10 panelists

SMILES	Distinguishing pizza sauce with compound (no MSG) from pizza sauce with full loading of MSG ([1]; 1.1 ppm Compound 1 vs 0.4% MSG)	# Correct [1, 3]	# Incorrect [1, 3]	# Correct [1, 4]	# Incorrect [1, 4]	# Correct ([1]; Totals, n = 20)	# Incorrect ([1]; Totals, n = 20)	Enhancement of the savory taste of 16 mM glutamate (naturally existing) in low sodium tomato juice [2]
CCCC(CCC)NC(=O)c1ccc2c(c1)OCO2 [Example 1, N-(heptan-4-yl)benzo[d][1,3]dioxole-5-carboxamide]	could not distinguish between the sauces	3	7	6	4	9	11	
COc1ccc(CNC(=O)C(=O)NCCc2ccccn2)c(OC)c1 [Example 24, N-(2,4-Dimethoxy-benzyl)-N′-(2-pyridin-2-yl-ethyl)-oxalamide]								by 1.4 to 1.5-fold
